Test results published in ChEMBL document CHEMBL5537122, “Design, synthesis, and biological evaluation of 4-(2-fluorophenoxy)-7-methoxyquinazoline derivatives as dual EGFR/c-Met inhibitors for the treatment of NSCLC” (Eur J Med Chem, 2024).

Key:
A549 = assay: Antiproliferative activity against human A549 cells overexpressing c-Met and EGFR assessed as reduction in cell viability incubated for 72 hrs by MTT assay; format: functional, cell-based; conditions: A549, 72 h
NCI-H1975 = assay: Antiproliferative activity against human NCI-H1975 cells overexpressing c-Met and EGFR assessed as reduction in cell viability incubated for 72 hrs by MTT assay; format: functional, cell-based; conditions: NCI-H1975, 72 h
PC-9 = assay: Antiproliferative activity against human PC-9 cells overexpressing c-Met and EGFR assessed as reduction in cell viability incubated for 72 hrs by MTT assay; format: functional, cell-based; conditions: PC-9, 72 h
[1] = target: Epidermal growth factor receptor (Homo sapiens, UniProt P00533); assay: biochemical
Sequence of Epidermal growth factor receptor (Homo sapiens, UniProt P00533) (P00533 whole entry): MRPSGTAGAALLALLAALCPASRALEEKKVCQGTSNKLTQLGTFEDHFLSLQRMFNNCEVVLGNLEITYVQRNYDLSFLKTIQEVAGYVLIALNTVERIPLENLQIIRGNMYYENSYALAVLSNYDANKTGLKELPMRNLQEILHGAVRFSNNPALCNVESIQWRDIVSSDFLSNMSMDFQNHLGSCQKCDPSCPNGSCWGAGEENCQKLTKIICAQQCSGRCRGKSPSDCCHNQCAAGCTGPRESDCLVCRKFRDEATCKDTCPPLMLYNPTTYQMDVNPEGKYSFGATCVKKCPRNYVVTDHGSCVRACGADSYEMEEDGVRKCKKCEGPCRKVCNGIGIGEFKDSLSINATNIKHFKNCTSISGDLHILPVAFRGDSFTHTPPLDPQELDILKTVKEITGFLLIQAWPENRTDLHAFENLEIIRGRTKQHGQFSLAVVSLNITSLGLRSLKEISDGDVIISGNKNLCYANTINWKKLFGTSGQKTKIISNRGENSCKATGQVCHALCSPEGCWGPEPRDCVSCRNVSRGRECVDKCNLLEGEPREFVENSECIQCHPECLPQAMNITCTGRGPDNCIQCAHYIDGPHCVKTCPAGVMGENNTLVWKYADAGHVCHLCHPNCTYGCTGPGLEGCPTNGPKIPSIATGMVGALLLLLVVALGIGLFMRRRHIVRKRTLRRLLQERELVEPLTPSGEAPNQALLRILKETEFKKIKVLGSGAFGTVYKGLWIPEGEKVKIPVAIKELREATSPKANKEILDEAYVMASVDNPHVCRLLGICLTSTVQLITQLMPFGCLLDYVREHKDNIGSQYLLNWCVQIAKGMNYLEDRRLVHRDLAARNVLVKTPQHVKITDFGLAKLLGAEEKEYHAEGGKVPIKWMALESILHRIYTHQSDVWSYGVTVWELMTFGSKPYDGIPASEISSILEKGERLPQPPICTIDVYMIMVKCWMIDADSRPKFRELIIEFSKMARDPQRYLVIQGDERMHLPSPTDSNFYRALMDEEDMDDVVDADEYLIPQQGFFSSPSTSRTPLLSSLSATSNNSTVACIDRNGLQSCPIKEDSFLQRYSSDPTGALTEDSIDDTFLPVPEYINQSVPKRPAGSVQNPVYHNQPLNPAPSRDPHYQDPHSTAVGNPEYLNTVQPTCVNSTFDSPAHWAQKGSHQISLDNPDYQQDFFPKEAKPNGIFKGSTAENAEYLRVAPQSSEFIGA
Description: Inhibition of N-terminal GST tagged human recombinant EGFR (695 to end residues) expressed in baculovirus infected Sf9 cells using Poly (4:1 Glu, Tyr) as substrate incubated for 60 mins in presence of ATP by ADP-Glo luminescent assay

[2] = target: Epidermal growth factor receptor (Homo sapiens, UniProt P00533, L858R); assay: biochemical
Sequence of Epidermal growth factor receptor (Homo sapiens, UniProt P00533, L858R) (P00533 25-1210 L858R limits assumed): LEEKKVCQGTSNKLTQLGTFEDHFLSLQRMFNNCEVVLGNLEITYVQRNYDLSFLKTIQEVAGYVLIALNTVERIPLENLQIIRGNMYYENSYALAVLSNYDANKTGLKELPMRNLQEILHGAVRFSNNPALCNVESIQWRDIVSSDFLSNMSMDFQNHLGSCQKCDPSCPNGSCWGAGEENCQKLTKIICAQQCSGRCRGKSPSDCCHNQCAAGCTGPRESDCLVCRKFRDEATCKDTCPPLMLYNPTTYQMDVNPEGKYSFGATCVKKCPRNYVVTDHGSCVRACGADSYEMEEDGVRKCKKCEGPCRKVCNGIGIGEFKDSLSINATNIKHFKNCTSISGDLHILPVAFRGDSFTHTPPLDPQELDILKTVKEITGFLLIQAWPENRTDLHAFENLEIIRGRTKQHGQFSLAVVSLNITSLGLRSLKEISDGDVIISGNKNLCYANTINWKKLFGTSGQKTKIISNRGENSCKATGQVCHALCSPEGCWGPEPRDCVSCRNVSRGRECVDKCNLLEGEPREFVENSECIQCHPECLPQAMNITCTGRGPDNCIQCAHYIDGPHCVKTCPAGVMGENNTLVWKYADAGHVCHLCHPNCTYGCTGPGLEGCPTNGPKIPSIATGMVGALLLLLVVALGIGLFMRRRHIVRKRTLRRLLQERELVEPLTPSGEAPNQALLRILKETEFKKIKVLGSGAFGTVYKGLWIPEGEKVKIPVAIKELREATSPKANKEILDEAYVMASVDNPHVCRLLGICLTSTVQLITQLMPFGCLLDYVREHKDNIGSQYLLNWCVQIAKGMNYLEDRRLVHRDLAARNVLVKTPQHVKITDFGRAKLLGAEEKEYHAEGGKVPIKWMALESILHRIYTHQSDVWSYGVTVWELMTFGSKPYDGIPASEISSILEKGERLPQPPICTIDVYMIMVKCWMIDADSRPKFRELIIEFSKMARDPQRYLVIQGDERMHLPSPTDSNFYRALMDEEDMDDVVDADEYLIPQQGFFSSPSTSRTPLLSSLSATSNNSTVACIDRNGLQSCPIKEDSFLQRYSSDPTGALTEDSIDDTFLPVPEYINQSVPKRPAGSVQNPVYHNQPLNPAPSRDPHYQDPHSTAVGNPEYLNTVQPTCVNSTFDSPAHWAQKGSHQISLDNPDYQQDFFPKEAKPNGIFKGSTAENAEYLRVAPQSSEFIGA

[3] = target: Hepatocyte growth factor receptor (Homo sapiens, UniProt P08581); assay: biochemical
Sequence of Hepatocyte growth factor receptor (P08581 whole entry): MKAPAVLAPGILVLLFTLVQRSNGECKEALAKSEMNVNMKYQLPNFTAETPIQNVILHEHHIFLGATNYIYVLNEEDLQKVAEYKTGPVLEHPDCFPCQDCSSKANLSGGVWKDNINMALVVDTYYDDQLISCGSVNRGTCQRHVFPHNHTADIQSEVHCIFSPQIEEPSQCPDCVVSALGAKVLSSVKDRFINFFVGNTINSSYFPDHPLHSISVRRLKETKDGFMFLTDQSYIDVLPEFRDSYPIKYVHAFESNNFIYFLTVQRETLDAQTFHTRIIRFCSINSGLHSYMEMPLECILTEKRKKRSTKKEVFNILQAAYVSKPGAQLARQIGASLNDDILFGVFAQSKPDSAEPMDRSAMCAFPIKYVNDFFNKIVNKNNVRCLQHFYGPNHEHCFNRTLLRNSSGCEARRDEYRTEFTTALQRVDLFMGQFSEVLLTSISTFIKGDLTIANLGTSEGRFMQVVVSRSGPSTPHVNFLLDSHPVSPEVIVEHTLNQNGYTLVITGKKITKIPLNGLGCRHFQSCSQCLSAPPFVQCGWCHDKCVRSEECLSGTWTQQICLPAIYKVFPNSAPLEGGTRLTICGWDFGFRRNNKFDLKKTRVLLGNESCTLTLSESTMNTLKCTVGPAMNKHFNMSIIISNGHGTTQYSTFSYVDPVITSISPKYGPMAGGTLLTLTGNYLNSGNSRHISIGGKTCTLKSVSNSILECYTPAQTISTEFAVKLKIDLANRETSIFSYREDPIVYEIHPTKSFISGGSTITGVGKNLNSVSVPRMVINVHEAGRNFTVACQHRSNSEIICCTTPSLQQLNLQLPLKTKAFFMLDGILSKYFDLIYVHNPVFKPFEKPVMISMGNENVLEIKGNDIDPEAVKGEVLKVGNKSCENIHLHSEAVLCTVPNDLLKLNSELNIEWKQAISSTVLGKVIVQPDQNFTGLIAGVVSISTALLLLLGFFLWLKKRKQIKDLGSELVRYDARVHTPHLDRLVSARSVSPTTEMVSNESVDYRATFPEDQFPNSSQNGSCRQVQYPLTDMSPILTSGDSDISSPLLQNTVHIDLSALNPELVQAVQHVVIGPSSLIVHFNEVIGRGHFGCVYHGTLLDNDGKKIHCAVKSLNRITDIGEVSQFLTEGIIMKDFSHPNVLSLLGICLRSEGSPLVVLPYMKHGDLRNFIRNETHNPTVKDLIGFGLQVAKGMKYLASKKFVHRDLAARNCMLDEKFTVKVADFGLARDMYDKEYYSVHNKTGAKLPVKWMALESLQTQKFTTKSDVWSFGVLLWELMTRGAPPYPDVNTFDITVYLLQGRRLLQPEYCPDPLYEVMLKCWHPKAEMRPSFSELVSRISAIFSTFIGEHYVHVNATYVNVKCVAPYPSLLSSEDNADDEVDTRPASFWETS
Description: Inhibition of N-terminal GST tagged human recombinant c-Met (956 to end residues) expressed in baculovirus infected Sf9 cells using Poly (4:1 Glu, Tyr) as substrate incubated for 60 mins in presence of ATP by ADP-Glo luminescent assay

Structure (SMILES)	IC50 (A549)	IC50 (NCI-H1975)	IC50 (PC-9)	IC50 [1]	IC50 [2]	IC50 [3]
C/C=C/C(=O)Nc1cc2c(Oc3ccc(NC(=O)CCCc4ccccc4)cc3F)ncnc2cc1OC	5.41 µM	4.65 µM	5.78 µM	2.89 µM	3.54 µM	0.465 µM
COc1cc2ncnc(Oc3ccc(NC(=O)CCCc4ccccc4)cc3F)c2cc1NC(=O)CCC(C)C	> 50 µM	13.7 µM	33.7 µM	> 10 µM	> 10 µM	1.48 µM
CCCCC(=O)Nc1cc2c(Oc3ccc(NC(=O)CCCc4ccc(OC)cc4)cc3F)ncnc2cc1OC	29.8 µM	43.4 µM	> 50 µM	> 10 µM	> 10 µM	0.824 µM
CCC(=O)Nc1cc2c(Oc3ccc(NC(=O)c4c(-c5c(Cl)cccc5Cl)noc4C)cc3F)cccc2cc1OC	7.95 µM	4.91 µM	5.22 µM	> 10 µM	> 10 µM	3.48 µM
CCCC(=O)Nc1cc2c(Oc3ccc(NC(=O)c4sc(-c5ccccc5)nc4C)cc3F)cccc2cc1OC	8.15 µM	5.1 µM	> 50 µM	> 10 µM	> 10 µM	0.0719 µM
CCCC(=O)Nc1cc2c(Oc3ccc(NC(=O)CCCc4ccsc4)cc3F)ncnc2cc1OC	> 50 µM	> 50 µM	13.8 µM	> 10 µM	> 10 µM	0.959 µM
C=CC(=O)Nc1cc2c(Oc3ccc(NC(=O)NCCc4ccc(OC)c(OC)c4)cc3F)ncnc2cc1OC	6.7 µM	11.4 µM	2.48 µM	2.35 µM	4.18 µM	0.114 µM
CCC(=O)Nc1cc2c(Oc3ccc(NC(=O)CCCc4ccc(C)cc4)cc3F)ncnc2cc1OC	3.29 µM	19.1 µM	7.84 µM	8.43 µM	> 10 µM	1.18 µM
CCC(=O)Nc1cc2c(Oc3ccc(NC(=O)NCCC4CCCCC4)cc3F)ncnc2cc1OC	2.43 µM	2.94 µM	> 50 µM	4.69 µM	> 10 µM	0.143 µM
CCC(=O)Nc1cc2c(Oc3ccc(NC(=O)CCCc4ccccc4)cc3F)ncnc2cc1OC	7.03 µM	3.98 µM	2.6 µM	1.44 µM	2.27 µM	0.444 µM
CCCC(=O)Nc1cc2c(Oc3ccc(NC(=O)CCCc4ccc(F)cc4)cc3F)ncnc2cc1OC	> 50 µM	12 µM	> 50 µM	> 10 µM	> 10 µM	0.477 µM
C=CC(=O)Nc1cc2c(Oc3ccc(NC(=O)CCCc4ccc(F)cc4)cc3F)ncnc2cc1OC	2.07 µM	8.21 µM	4.56 µM	0.782 µM	1.07 µM	0.355 µM
CCCC(=O)Nc1cc2c(Oc3ccc(NC(=O)c4c(-c5c(Cl)cccc5Cl)noc4C)cc3F)cccc2cc1OC	> 50 µM	> 50 µM	> 50 µM	> 10 µM	> 10 µM	5.93 µM
C=CC(=O)Nc1cc2c(Oc3ccc(NC(=O)c4sc(-c5ccccc5)nc4C)cc3F)cccc2cc1OC	1.94 µM	2.4 µM	2.33 µM	0.173 µM	0.518 µM	0.0386 µM
C=CC(=O)Nc1cc2c(Oc3ccc(NC(=O)CCCc4ccccc4)cc3F)ncnc2cc1OC	2.25 µM	1.34 µM	2.46 µM	0.387 µM	0.497 µM	0.658 µM
C/C=C/C(=O)Nc1cc2c(Oc3ccc(NC(=O)n4c(=O)c(-c5ccccc5)c(C)n4C)cc3F)cccc2cc1OC	2.7 µM	9.42 µM	8.88 µM	4.83 µM	> 10 µM	0.015 µM
C/C=C/C(=O)Nc1cc2c(Oc3ccc(NC(=O)CCCc4ccsc4)cc3F)ncnc2cc1OC	21.7 µM	> 50 µM	1.63 µM	> 10 µM	> 10 µM	1.39 µM
COc1cc2ncnc(Oc3ccc(NC(=O)CCCc4ccc(F)cc4)cc3F)c2cc1NC(=O)CCC(C)C	> 50 µM	12 µM	> 50 µM	> 10 µM	> 10 µM	0.712 µM
C/C=C/C(=O)Nc1cc2c(Oc3ccc(NC(=O)CCCc4ccc(OC)cc4)cc3F)ncnc2cc1OC	6.43 µM	> 50 µM	8.17 µM	> 10 µM	> 10 µM	0.493 µM
C/C=C/C(=O)Nc1cc2c(Oc3ccc(NC(=O)c4sc(-c5ccccc5)nc4C)cc3F)cccc2cc1OC	44.2 µM	> 50 µM	> 50 µM	2.32 µM	> 10 µM	0.0964 µM

Structure (SMILES)	IC50 (A549)	IC50 (NCI-H1975)	IC50 (PC-9)	IC50 [1]	IC50 [2]	IC50 [3]
CCCCC(=O)Nc1cc2c(Oc3ccc(NC(=O)CCCc4ccsc4)cc3F)ncnc2cc1OC	> 50 µM	37.6 µM	> 50 µM	> 10 µM	> 10 µM	1.56 µM
C/C=C/C(=O)Nc1cc2c(Oc3ccc(NC(=O)CCCc4ccc(C)cc4)cc3F)ncnc2cc1OC	4.56 µM	9.49 µM	8.4 µM	7.65 µM	> 10 µM	0.531 µM
C=CC(=O)Nc1cc2c(Oc3ccc(NC(=O)c4c(-c5c(Cl)cccc5Cl)noc4C)cc3F)cccc2cc1OC	4.57 µM	4.9 µM	6.73 µM	–	–	1.77 µM
COc1cc2ncnc(Oc3ccc(NC(=O)CCCc4ccsc4)cc3F)c2cc1NC(=O)CCC(C)C	13 µM	> 50 µM	> 50 µM	> 10 µM	> 10 µM	5.55 µM
CCCC(=O)Nc1cc2c(Oc3ccc(NC(=O)CCCc4ccccc4)cc3F)ncnc2cc1OC	7.66 µM	4.96 µM	9.31 µM	2.65 µM	4.65 µM	0.316 µM
CCC(=O)Nc1cc2c(Oc3ccc(NC(=O)NCCc4ccc(OC)c(OC)c4)cc3F)ncnc2cc1OC	> 50 µM	> 50 µM	> 50 µM	> 10 µM	> 10 µM	0.0905 µM
COc1cc2ncnc(Oc3ccc(NC(=O)CCCc4ccc(C)cc4)cc3F)c2cc1NC(=O)CCC(C)C	> 50 µM	27.5 µM	> 50 µM	> 10 µM	> 10 µM	3.07 µM
C=CC(=O)Nc1cc2c(Oc3ccc(NC(=O)NCCC4CCCCC4)cc3F)ncnc2cc1OC	1.57 µM	4.26 µM	1.68 µM	1.28 µM	1.39 µM	0.088 µM
CCC(=O)Nc1cc2c(Oc3ccc(NC(=O)CCCc4ccc(F)cc4)cc3F)ncnc2cc1OC	3.68 µM	1.31 µM	3.1 µM	6.87 µM	5.31 µM	0.354 µM
CCCC(=O)Nc1cc2c(Oc3ccc(NC(=O)CCCc4ccc(OC)cc4)cc3F)ncnc2cc1OC	7.74 µM	16.2 µM	> 50 µM	7.64 µM	8.96 µM	0.607 µM
CCC(=O)Nc1cc2c(Oc3ccc(NC(=O)CCCc4ccsc4)cc3F)ncnc2cc1OC	12.4 µM	> 50 µM	4.03 µM	> 10 µM	> 10 µM	0.579 µM
C/C=C/C(=O)Nc1cc2c(Oc3ccc(NC(=O)CCCc4ccc(F)cc4)cc3F)ncnc2cc1OC	> 50 µM	4.78 µM	2.31 µM	4.54 µM	5.72 µM	0.67 µM
COc1ccc(CCCC(=O)Nc2ccc(Oc3ncnc4cc(OC)c(NC(=O)CCC(C)C)cc34)c(F)c2)cc1	> 50 µM	10.5 µM	> 50 µM	> 10 µM	> 10 µM	> 10 µM
CCCC(=O)Nc1cc2c(Oc3ccc(NC(=O)CCCc4ccc(C)cc4)cc3F)ncnc2cc1OC	14 µM	14.2 µM	28.9 µM	> 10 µM	> 10 µM	0.678 µM
C=CC(=O)Nc1cc2c(Oc3ccc(NC(=O)CCCc4ccsc4)cc3F)ncnc2cc1OC	5.14 µM	4.72 µM	0.99 µM	> 10 µM	> 10 µM	0.693 µM
CCC(=O)Nc1cc2c(Oc3ccc(NC(=O)CCCc4ccc(OC)cc4)cc3F)ncnc2cc1OC	2.87 µM	7.05 µM	9.28 µM	> 10 µM	> 10 µM	0.273 µM
CCCC(=O)Nc1cc2c(Oc3ccc(NC(=O)n4c(=O)c(-c5ccccc5)c(C)n4C)cc3F)cccc2cc1OC	10.2 µM	> 50 µM	> 50 µM	4.21 µM	> 10 µM	0.00411 µM
CCC(=O)Nc1cc2c(Oc3ccc(NC(=O)n4c(=O)c(-c5ccccc5)c(C)n4C)cc3F)cccc2cc1OC	8.42 µM	22.2 µM	1.06 µM	> 10 µM	> 10 µM	0.00102 µM
CCCCC(=O)Nc1cc2c(Oc3ccc(NC(=O)CCCc4ccccc4)cc3F)ncnc2cc1OC	7.15 µM	8.39 µM	8.84 µM	> 10 µM	> 10 µM	0.605 µM
CCCCC(=O)Nc1cc2c(Oc3ccc(NC(=O)CCCc4ccc(F)cc4)cc3F)ncnc2cc1OC	> 50 µM	41.2 µM	> 50 µM	> 10 µM	> 10 µM	0.533 µM
